± gives the expanded uncertainty stated by the source.
Test: xn = mol fraction of the nth substance listed
Settings: Liquid, dividing mass by volume

CCCCCCCC [octane] + O=C=O
Settings | mass density [kg/m3]
313.2 K, x2 = 0.11 | 730 ± 15
313.2 K, x2 = 0.2134 | 729 ± 15
313.2 K, x2 = 0.3377 | 729.3 ± 15
313.2 K, x2 = 0.4342 | 711.9 ± 14
313.2 K, x2 = 0.5534 | 692.7 ± 14
313.2 K, x2 = 0.6752 | 663.5 ± 13
313.2 K, x2 = 0.752 | 644.6 ± 13
313.2 K, x2 = 0.8581 | 585 ± 12
313.2 K, x2 = 0.9447 | 462.3 ± 9.3
333.2 K, x2 = 0.1573 | 683.6 ± 14
333.2 K, x2 = 0.206 | 678.5 ± 14
333.2 K, x2 = 0.2891 | 670.1 ± 13
333.2 K, x2 = 0.3593 | 660.5 ± 13
333.2 K, x2 = 0.4296 | 657.3 ± 13
333.2 K, x2 = 0.4956 | 641.9 ± 13
333.2 K, x2 = 0.5915 | 627.8 ± 13
333.2 K, x2 = 0.7413 | 556.8 ± 11
333.2 K, x2 = 0.8558 | 516.5 ± 10
333.2 K, x2 = 0.9383 | 436.1 ± 8.7
353.2 K, x2 = 0.1452 | 658.6 ± 13
353.2 K, x2 = 0.2452 | 651.5 ± 13
353.2 K, x2 = 0.3596 | 642.5 ± 13
353.2 K, x2 = 0.4373 | 635.4 ± 13
353.2 K, x2 = 0.4948 | 621.3 ± 12
353.2 K, x2 = 0.5783 | 614.8 ± 12
353.2 K, x2 = 0.6237 | 600.1 ± 12
353.2 K, x2 = 0.7761 | 585.8 ± 12
353.2 K, x2 = 0.8255 | 560 ± 11
353.2 K, x2 = 0.9154 | 458.2 ± 9.2
373.2 K, x2 = 0.2172 | 550.7 ± 11
373.2 K, x2 = 0.369 | 565.2 ± 11
373.2 K, x2 = 0.5134 | 584.2 ± 12
373.2 K, x2 = 0.5706 | 592.6 ± 12
373.2 K, x2 = 0.6538 | 591.7 ± 12
373.2 K, x2 = 0.7837 | 565.8 ± 11
373.2 K, x2 = 0.8522 | 516.3 ± 10
373.2 K, x2 = 0.902 | 425.1 ± 8.5
393.2 K, x2 = 0.156 | 510.3 ± 10
393.2 K, x2 = 0.2689 | 525.1 ± 10
393.2 K, x2 = 0.3933 | 531.4 ± 11
393.2 K, x2 = 0.4582 | 537.8 ± 11
393.2 K, x2 = 0.522 | 544.7 ± 11
393.2 K, x2 = 0.5922 | 546.8 ± 11
393.2 K, x2 = 0.6738 | 551.1 ± 11
393.2 K, x2 = 0.7464 | 553.2 ± 11
393.2 K, x2 = 0.8146 | 519.8 ± 10
393.2 K, x2 = 0.8728 | 400.2 ± 8

From the NIST ThermoML archive (doi:10.1016/j.fluid.2006.05.014)
